According to patent publication US6962971B2, “Chemokines and methods for inducing the differentiation of fibroblasts to myofibroblasts” (The Regents of the University of California, priority 2001, dated 2005):
“Also recorded” adds a separate entry of the source.

Experiments:
[1] = system: primary chicken embryonic connective tissue fibroblasts; test: Fibroblast growth assay; assay type: cell-based; conditions: for effect on fibroblast growth / cell numbers: 3 days treatment, 2% donor calf serum
Procedure: Primary chicken embryonic connective tissue fibroblasts (CEFs) were cultured as previously described in Martins-Green and Feugate (1998). Briefly, these fibroblasts were isolated from 10-day-old chicken embryo body walls, plated at 6×10^6 cells/100 mm plate and cultured for 4 days in 199 medium with 5% donor calf serum, 1% chick serum and 0.3% tryptose phosphate broth. These cultures were passaged once (secondary cultures); the cells were plated at 0.4×10^6 cells/35 mm plate in 199/tryptose phosphate broth and 2% donor calf serum.
Secondary fibroblasts were plated at 0.4×10^6 cells/35 mm plate and cCAF was added to experimental plates. For each experiment, plating efficiency was determined by trypsinizing plates four hours after plating. Cells were counted with a Coulter particle counter to confirm even plating of cells. The media was replaced approximately every 16 hr with 1 ml of […] 199 medium containing 0.3% tryptose phosphate broth and 2% donor calf serum, and 100-1000 ng cCAF [9-90 nM] or C- or N-peptide [64-640 nM] was added to the experimental plates, whereas, control plates contained media only. On day 3, plates were trypsinized to remove all cells and cells were counted using a Coulter counter. To test for specificity, anti-cCAF rabbit serum was pre-incubated with cCAF (3 μl serum/750 ng cCAF [68 nM] or N-peptide [480 nM]) for 1 hr at room temperature before being added to cells.

[2] = system: chicken chorioallantoic membrane (CAM); conditions: in vivo; cited from earlier work
[3] = system: chicken CXC receptor 1 (CXCR1); test: Chicken cCXCR1-mediated calcium release; assay type: cell-based; conditions: NIH #373 cells overexpressing chicken CXCR1
Procedure: NIH #373 cells overexpressing the chicken CXC receptor 1 (CXCR1) were exposed to the full-length cCAF molecule, the 15-amino N-terminal peptide of cCAF, or the 28-amino acid C-terminal peptide and calcium release was then measured.

fibroblasts = test: Induction of differentiation of fibroblasts to myofibroblasts by IL-8 forms; assay type: cell-based; conditions: IL-8-77 versus IL-8-72
α-SMA [4] = test: Immunostaining for α-SMA in fibroblast cultures and collagen gel sections; assay type: cell-based, chicken; conditions: versus control gels
Procedure: Plates of fibroblasts were treated with cCAF as described previously. After 4 days, the cells were rinsed with PBS, fixed in 4% paraformaldehyde, permeabilized with 0.15% Triton X-100 and incubated with PBS containing 0.1M glycine for 10 min. Cells were blocked for 30 min with 10% goat serum in PBS, incubated with mouse anti-α-SMA, to a final IgG concentration of 20 μg/ml, in 1% BSA/PBS for 1hr at room temperature (RT), and washed three times with 0.1% BSA/PBS for 10 min each. The cells were then incubated in goat anti-mouse FITC or sheep anti-mouse Texas Red (1:100) in 1% BSA/PBS for 1 hr at RT, washed three times for 10 min with 0.1% BSA in PBS and mounted with Vectashield. Collagen gels were rinsed with PBS, fixed in 4% paraformaldehyde for 2 hr, washed three times 30 min each with PBS, and incubated for an additional 30 min in PBS containing 0.1M glycine. This treatment was followed by incubation at 4° C. overnight in 15% sucrose and then incubated under the same conditions in 30% sucrose. After a brief rinse with PBS, the gels were frozen in OCT, sections prepared and collected on gelatin-coated slides, rinsed with PBS, fixed in 4% paraformaldehyde for 10 min, and then incubated again in PBS containing 0.1M glycine for 10 min. This was followed by blocking for 30 min with 10% goat serum in PBS, incubation in primary and secondary antibody as described above, and mounting with Vectashield.

[5] = system: fibroblast-seeded collagen gels; test: Collagen gel contraction by fibroblasts; assay type: cell-based, chicken
Procedure: 1.5 ml Vitrogen 100 collagen gels were made in 35 mm plates. Secondary fibroblasts were plated at 0.4×10^6 cells/35 mm plate on top of the gels. After the cells had adhered to the collagen, cCAF was added to experimental plates. The medium was replaced approximately every 16 hr with 1 ml of 199 supplemented with 0.3% tryptose phosphate broth and 2% donor calf serum, and 750 ng cCAF [68 nM] or N-peptide [480 nM] was added to the experimental plates. Control plates contained media only. After 4 days, gels were released. Treatment was continued for 2 more days and gels were photographed every 12 hours. The photographs were used for evaluation of gel contraction by determining the area of the gel using NIH image analysis.

α-SMA [6] = test: Immunoblotting for α-SMA in fibroblast extracts; assay type: cell-based, chicken
Procedure: Plates of fibroblasts were treated as described previously, with 750 ng/ml cCAF or 2.5 ng/ml TGFβ. To block TGFβ, or cCAF activity, anti-cCAF (3 μl) or anti-TGFβ (1 μl) antibody was pre-incubated in 1 ml media for 1 hr at room temperature before being added to cells. After 4 days of treatment, protein extracts were prepared in 1 ml 150 mM RIPA buffer containing protease inhibitors. Protein concentrations were determined using the DC protein assay kit and samples were adjusted to contain equal amounts of protein. SDS-PAGE was performed on 7.5% separating Doucet gels (Doucet and Trifaro, 1988). Protein transfer to nitrocellulose was performed using a wet-transfer apparatus (Bio-Rad) at 100V for 45 min. The membranes were blocked for 1 hr in 5% milk in TTBS and then incubated overnight at 4° C. in mouse anti-α-SMA, to a final IgG concentration of 5 μg/ml, in 1% milk in TTBS. The membranes were washed 3 times for 20 min each with TTBS, incubated in anti-mouse HRP at 1:10,000 in 1% milk for 1hr and washed as above, and the bands visualized using the ECL.

[7] = system: Full-thickness excision wounds on the underside of the wings of 2-week-old chicks; test: Wounding experiment: closure of excision wounds; assay type: in vivo, chicken; conditions: 1 μg every other day, topical; versus vehicle (H2O) on contralateral wing
Procedure: Full-thickness excision wounds (approximately 0.5×0.5 cm) were made, using a scalpel blade, on the underside of the wings of 2-week-old chicks. The left wing was treated with vehicle alone (water), and the right wing with […] cCAF [90 nM]. The wounds were photographed immediately after wounding and then covered with Biocclusive bandage. 50 μl vehicle (water) or cCAF was deposited through the bandage onto the wound using a 30-gauge needle. This procedure was repeated the next day and every other day thereafter. On days 3, 5 and 7, the bandages were removed and the wounds were photographed before replacing the bandages and applying the treatment again.

Question: With “C-peptide: 28-amino acid peptide extending from residues 59-86 of cCAF (SEQ ID NO:2) (CLDPTAPWVQLIVKALMAKAQLNSDAPL; Gallusgallus) [reference compound]” as the substance, how does the “effect on fibroblast growth / cell numbers” value [1] read?
Answer: did not suppress the growth of connective tissue fibroblasts

Question: And the “effect on fibroblast growth / cell numbers” value ([1]; listed as C-terminal peptide)?
Answer: did not cause a decrease in cell numbers

Question: What about the “angiogenic activity of the peptide by itself” value [2] of the same substance?
Answer: angiogenic in vivo

Question: What about the calcium release ([3]; 400 ng) of the same substance?
Answer: failed to induce calcium release

Question: What about the calcium release ([3]; 800 ng) of the same substance?
Answer: release of calcium that was similar in magnitude, but differed in time course from the N-peptide-induced release

Question: Which “potency at inducing differentiation of fibroblasts to myofibroblasts, relative to the other IL-8 form” value (fibroblasts) does the source give for “IL-8-77: 77-residue form of human interleukin-8, SEQ ID NO:4” here?
Answer: more potent at inducing differentiation of fibroblasts to myofibroblasts

Question: What does the source list for “LSQGRTLVKMGNELR (Gallusgallus) [N-peptide, 15-amino acid N-terminal peptide of cCAF]”?
Answer: effect on fibroblast growth / cell numbers [1]: suppresses the growth of fibroblasts to a level similar to that caused by the whole cCAF molecule; also recorded: decrease in growth similar to that induced by cCAF; dose- and time-dependent pattern of suppression of growth ([1]; compared with whole cCAF, not shown): same as that of the whole cCAF molecule, albeit at a higher molar concentration; α-SMA immunolabeling of sections of fibroblast-seeded collagen gels (α-SMA [4]): more cells with fibers staining for α-SMA than control gels; contraction of collagen gels after release ([5]; 750 ng/ml, 4-5 days treatment before release, versus untreated cells): much greater contraction; also recorded: stimulated fibroblasts to contract collagen gels more efficiently than untreated cells; also recorded: contracted the gels more tightly than did untreated cells; contraction of fibroblast clusters on collagen ([5]; versus control cells): form clusters that are much tighter and generally pull away from the collagen; also recorded: more contracted than clusters in control cells; α-SMA levels by immunoblot (α-SMA [6]; 750 ng/ml, versus untreated or C-peptide treated cells): much higher levels of α-SMA; also recorded: increased levels of α-SMA; wound closure at day 3 (days 0-3) [7]: accelerated wound closure during days 0-3, albeit less strongly than with the whole cCAF molecule; calcium release ([3]; 400 ng): similar, albeit somewhat slower, release

Question: With “TGFβ: Transforming Growth Factorβ-1, known stimulator of myofibroblast differentiation [reference compound]” as the substance, how does the “α-SMA expression after TGFβ treatment” value (α-SMA [6]; 2.5 ng/ml) read?
Answer: stimulation of α-SMA
